pKi: −log10 of the molar value.
Target: T1, human and rat GPR-14 (UniProt Q9UKP6)
T1 sequence (Q9UKP6 1-389): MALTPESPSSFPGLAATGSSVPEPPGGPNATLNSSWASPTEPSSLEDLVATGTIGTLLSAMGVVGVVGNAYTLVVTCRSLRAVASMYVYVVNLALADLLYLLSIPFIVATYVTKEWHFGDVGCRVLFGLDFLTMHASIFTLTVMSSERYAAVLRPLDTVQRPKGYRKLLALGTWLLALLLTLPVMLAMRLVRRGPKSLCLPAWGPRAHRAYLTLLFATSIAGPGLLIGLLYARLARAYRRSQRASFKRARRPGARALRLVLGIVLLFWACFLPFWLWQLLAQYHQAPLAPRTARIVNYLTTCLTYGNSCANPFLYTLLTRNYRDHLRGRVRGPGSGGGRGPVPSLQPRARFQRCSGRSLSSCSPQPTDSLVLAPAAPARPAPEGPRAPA
Experiment: Radioligand binding ([125I] h-U-II) to HEK-293 cell membranes containing cloned GPR-14
Settings: stable cloned GPR-14, 200 pM [125I] h-U-II, species of receptor not given

SMILES: COc1cc(Br)c(S(=O)(=O)Nc2ccc(Cl)c(O[C@H]3CCN(C)C3)c2)cc1OC [Example 10, 2-Bromo-N-[4-chloro-3-((S)-1-methyl-pyrrolidin-3-yloxy)-phenyl]-4,5-dimethoxy-benzenesulfonamide]
- pKi: 6.57
